Data set [1] concerns IDO. Nature of the data set: Recall MLR of primed recipient LN cells with 1MT added to the MLR. Type of data set: cell-based, mouse. The conditions noted are these: responders from recipients of TDLN DCs.
The subject of a further data set is B16F10 melanomas. The experiment in a line: Established B16F10 melanoma model, 1MT with radiation or cyclophosphamide. Format: in vivo, mouse. To be noted: for effect on tumor growth, 1MT alone: established tumor, treatment from day 7, SQ pellets. As to the method: FIGS. 11A-11D. Administration of 1-MT enhances immune-mediated host anti-tumor effect when administered with radiation or cyclophosphamide. Mice were injected subcutaneously (SQ) with 4×10^4 B16F10 cells. […] Control mice received vehicle pellets without drug.
Mouse tumor models. C57BL/6 mice (Jackson, Bar Harbor, Me.) were implanted with tumors in the anteriomedial thigh, using either 4×10^4 B16F10 (ATCC, Bethesda, Md.) or 1×10^6 B78H1•GM-CSF. B78H1•GM-CSF cells recruit large numbers of APCs (Dranoff et al., Proc. Natl. Acad. Sci. USA, 1993; 90:3539) and were originally designed as a vaccine strategy. GMCSF-transfected tumors are immunogenic if lethally irradiated prior to injection (Borrello et al., Hum. Gene Ther., 1999; 10:1983), but live tumors grow progressively and create systemic tolerance to tumor antigens (Bronte et al., J. Immunol., 1999; 162:5728). Thus, B78H1•GM-CSF represented an excellent model for our studies, since it recruited many DCs but nevertheless […]. Tumors were 10-12 days after implantation, well prior to the stage of large, metastatic tumors (day 21) in which the hosts began to show alteration in spleen and non-tumor-draining LNs.
Not unexpected, given that the tumor had already been allowed to create tolerance in the host.

Data set [2] relates to Lewis Lung carcinoma (LLC). To be noted: mouse, in vivo; cited from earlier work.
The next data set deals with P815 with IDO. The conditions noted are these: concomitant administration; cited from earlier work.
Data set [3] can be described thus: Comparative plasma pharmacokinetics of the stereo-isomers of 1-MT. Type of data set: in vivo, mouse. The method, then: Studies were conducted in conventional mice after IV, PO and SC doses of 50 mg/kg, and IP doses of 25 mg/kg, 50 mg/kg, and 100 mg/kg.
The nature of data set [4]: Pilot tissue biodistribution of D and L isomers after DL racemic mixture. Format: in vivo, mouse. The conditions noted are these: DL racemic mixture 10 mg/day SQ pellets, 72 hour infusion. From the text:
The results noted with spleen are particularly relevant because it is a lymphoid organ, and thus likely to be similar to tumor-draining lymph nodes.

Data set [5] deals with IDO (Mus musculus, UniProt P28776). Nature of the data set: MLR with sorted tumor-draining lymph node (TDLN) cells as stimulators and BM3 responder T cells. The conditions noted are these: 10x.
Procedure: T cell activation in MLR. BM3 responder T cells were prepared from spleen by nylon-wool enrichment. Stimulators (sorted DCs or unfractionated TDLN) were mixed with 1×10^5 BM3 responder cells in 200 ul IMDM at the ratios shown in each figure. After 3 days, proliferation was measured by 4-hour thymidine incorporation assay.
MLRs were thus “two-way” reactions. However, the small number of sorted DCs used as stimulators contributed negligible proliferation compared to the large population of TCR-transgenic responder cells. Since the relevant readout was dominant suppression, the two-way MLR design presented no problem in interpretation.
Pooled draining LN cells (4 nodes) were stained and fractionated by 4-color MoFlo cell sorting for the two populations shown in the schematic of FIG. 5B. All other cells were collected in a third fraction. Each fraction was then used as stimulators in MLRs, using 50,000 BM3 T cells as responders. The number of stimulators used in each MLR was adjusted to be the same as would have been present in 50,000 cells of the original LN preparation, based on the measured percentage of each sorted fraction. Thus, 500 cells of the sorted B220^+ CD11c^+ fraction were added per well, and 1500 cells of the CD25^+ CD4^+ fraction, while 48,000 cells of the “all other” fraction were used.
The target in data set [6] is IDO (Homo sapiens, UniProt P14902). The experiment in a line: Allogeneic mixed-leukocyte reaction (MLR) with IDO-expressing human monocyte-derived DCs, T cell proliferation by thymidine incorporation. The conditions noted are these: 250 uM in culture medium. In general terms: Incorporation of labelled thymidine or its analogues reports DNA synthesis.
Procedure: Replicate MLRs received each compound at the concentrations shown. Bars represent T cell proliferation at the end of the 5-day activation period.
After 5 days, proliferation was measured by 4 hour thymidine incorporation assay. “V”-bottom culture wells (Nunc) were used in MLR assays to maximize cell-cell contact.
DCs were used as stimulators in allogeneic mixed-leukocyte reactions (MLRs), with allogeneic lymphocytes as responder cells.
In data set [7] the target is rabbit polyclonal anti-human IDO antibody (raised against the KLH-conjugated peptide of SEQ ID NO:1, affinity purified). Nature of the data set: flow cytometry of IFNγ-activated monocyte-derived macrophages; anti-IDO antibody pre-adsorbed with the immunizing peptide, which competes with IDO. (In general: In flow cytometry, cells or beads pass a laser one at a time.)

“Also recorded” adds a separate entry of the source. No end group written: not given here. Where only a bound is given, the exact number is not on record here.

Results on six molecules are retold here after US20090123420A1, “Regulation of T Cell-Mediated Immunity by D Isomers of Inhibitors of Indoleamine-2,3-Dioxygenase” (Medical College of Georgia Research Institute, Inc, priority 2003, published 2009).

IDO (Mus musculus, UniProt P28776), sequence (P28776 whole entry): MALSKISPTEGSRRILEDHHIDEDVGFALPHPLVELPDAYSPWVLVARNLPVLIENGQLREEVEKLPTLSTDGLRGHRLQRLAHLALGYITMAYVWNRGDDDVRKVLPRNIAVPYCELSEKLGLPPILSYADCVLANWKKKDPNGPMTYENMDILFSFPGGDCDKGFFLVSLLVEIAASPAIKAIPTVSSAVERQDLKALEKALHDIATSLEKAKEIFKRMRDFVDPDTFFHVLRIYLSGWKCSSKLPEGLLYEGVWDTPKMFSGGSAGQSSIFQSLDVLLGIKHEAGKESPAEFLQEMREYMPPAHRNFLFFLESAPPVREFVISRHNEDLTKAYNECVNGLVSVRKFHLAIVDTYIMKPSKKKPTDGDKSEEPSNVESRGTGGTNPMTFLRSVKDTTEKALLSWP
IDO (Homo sapiens, UniProt P14902), sequence (P14902 whole entry): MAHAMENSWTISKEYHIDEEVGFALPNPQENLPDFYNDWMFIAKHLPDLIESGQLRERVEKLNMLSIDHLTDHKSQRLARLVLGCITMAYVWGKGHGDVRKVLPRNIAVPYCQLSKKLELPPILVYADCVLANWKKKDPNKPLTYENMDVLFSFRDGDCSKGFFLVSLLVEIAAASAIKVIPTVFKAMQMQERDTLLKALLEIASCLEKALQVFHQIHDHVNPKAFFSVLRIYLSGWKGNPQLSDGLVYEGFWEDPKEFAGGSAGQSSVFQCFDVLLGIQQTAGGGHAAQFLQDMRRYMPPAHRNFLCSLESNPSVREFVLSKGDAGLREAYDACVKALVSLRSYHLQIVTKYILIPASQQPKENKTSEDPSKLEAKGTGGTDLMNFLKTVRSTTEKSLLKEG

In the case of `Cn1cc(C[C@H](N)C(=O)O)c2ccccc21` [1MT, 1-methyl-tryptophan], in the data set on IDO [1], the “suppression in recall MLRs” value was “no effect; also recorded: not restored”. Moreover, the “effect of 1MT over cyclophosphamide alone in immunodeficient hosts” value with B16F10 melanomas (RAG1-knockout hosts) was “no enhancing effect”. The “effect on tumor growth, 1MT alone” value in the data set on B16F10 melanomas is reported as “no effect”. In addition, the tumor outgrowth result in data set [2] is “significantly delayed tumor outgrowth”. In the data set with P815 with IDO, the “IDO-mediated prevention of tumor rejection by pre-immunized hosts” value was “substantially reversed”.
Turning to `Cn1cc(C[C@@H](N)C(=O)O)c2ccccc21` [1-methyl-D-tryptophan], the “anti-tumor effect of combination with radiation” value in the data set on B16F10 melanomas (replicate radiation studies) is given as “enhanced effect over radiation alone”. Further, the “apparent volume of distribution” value in [3] (D versus L isomer) is “relatively greater”. The same molecule gave a bioavailability in data set [3] (mouse, plasma, po, 50 mg/kg) of 64%. In data set [4], the “accumulation in liver, D versus L isomer” value is “at least equal, and possibly preferential, accumulation”; the “distribution into muscle and spleen, D versus L isomer” value is recorded as “equivalent distribution”; the “levels in plasma and in brain, D versus L isomer” value is “lower levels”.
With `N[C@@H](Cc1c[nH]c2ccccc12)C(=O)O` [L-tryptophan], the “suppression by pDCs with excess L-tryptophan” value on IDO [5] (250 uM, IDO-sufficient host) is listed as “abrogated; also recorded: abrogates suppression”. The “effect of excess L-tryptophan with IDO-knockout pDCs” value on IDO [5] (TDLN cells from IDO-knockout mice) is “no effect”. Moreover, the “DC-mediated inhibition of T cell proliferation with supra-physiologic tryptophan” value on IDO [6] is given as “completely reversed”.
Turning to `Cn1cc(C[C@H](N)C(=O)O)c2ccccc21` [L 1-MT, reference compound], the oral bioavailability in data set [3] (PO) is on record as 105%.
For `Cn1cc(CC(N)C(=O)O)c2ccccc21` (racemic) [DL racemic form of 1MT, reference compound], the “tumor growth, 1MT with cyclophosphamide” value in the data set on B16F10 melanomas (20 mg per mouse per day DL racemic, cyclophosphamide 150 mg/kg x 1 dose) was “significantly reduce tumor growth”. Besides, in the data set on B16F10 melanomas (20 mg per mouse per day DL racemic, total-body radiation 500 cGy single dose), the “tumor growth, 1MT with radiation” value is “significantly reduce tumor growth”. The “effect on tumor growth, 1MT alone” value in the data set with B16F10 melanomas was “no effect”.
For the molecule LIESGQLRERVEKLNMLC (also: conjugated to keyhole limpet carrier protein for immunisation) [immunizing peptide … (SEQ ID NO:1), based on human IDO], in data set [7], the reduction of flow cytometry signal was above 95%.

Broadly, the bioavailability is dose-corrected exposure relative to a reference, in per cent.
